Measured values from publication PMC9848259 (Journal of Enzyme Inhibition and Medicinal Chemistry, 2023).

Assays:
[1] = biological target: T1, BuChE (from equine serum) (Equus caballus, UniProt P81908); assay: biochemical; details: for Selectivity for BuChE: IC50(AChE)/IC50(BuChE); for IC50: means ± SD of three experiments
T1 construct: purchased Sigma Aldrich; host or cells: equine serum
Protocol: (§1) The capacity of the novel cyclopentaquinoline hybrids to inhibit AChE (from the electric eel) and BuChE (from equine serum) were determined by the modified colorimetric Ellman’s method[38]^,[39]. Both enzymes, DTNB – Ellman’s reagent (5,5′-dithiobis-(2-nitrobenzoic acid)), acetyltiocholine iodide (ATCI) were obtained from Sigma Aldrich. AChE and BuChE samples in phosphate buffer (PBS) pH 8.0 were incubated in 96-well plates in the presence of the substrate (ATCI), 76 µl of DTNB and the tested compound at various concentration at room temperature for 10 min (AChE) or eight minutes (BuChE).

[2] = biological target: T2, AChE (from the electric eel) (Electrophorus electricus, UniProt O42275); assay: biochemical; details: for Selectivity for AChE: IC50(BuChE)/IC50(AChE); for IC50: means ± SD of three experiments
T2 construct: purchased Sigma Aldrich
Protocol: as §1

[3] = biological target: T3, Aβ42 (Homo sapiens, UniProt P05067); assay: In cellulo β-amyloid assay, Th-S fluorescence in E. coli over-expressing Aβ42; assay type: cell-based, Escherichia coli; details: 10 µM
T3 construct: expressed in transfected cells; host or cells: Escherichia coli BL21 (DE3), pET vector
Protocol: Inhibition assay in Escherichia coli cells over-expressing amyloid proteins. […] Escherichia coli competent cells BL21 (DE3) were transformed with the required pET vectors carrying the DNA sequence of Aβ42 peptide. Because of the addition of the initiation codon ATG in front of genes, the over-expressed Aβ42 contains an additional methionine residue at their N terminus. For overnight culture preparation, a colony of BL21 (DE3) bearing the plasmid to be expressed was inoculated in 10 ml of M9 minimal medium containing 50 μg/ml of kanamycin at 37 °C. […] The bacterial culture was then grown at 37 °C, with orbital agitation of 250 rpm. When the cell density reached OD600nm–0.6, 980 μL of the culture were transferred into 1.5 ml conical tubes containing 10 μL of the compound to be tested dissolved in DMSO, and 10 μL of 100 mM isopropyl 1-thio-β-D-galactopyranoside (IPTG). The final concentration of the compound was set to 10 μM. The samples were grown overnight at 37 °C under agitation at 1400 rpm, using a Thermomixer (Eppendorf, Hamburg, Germany). […]
The fluorescence normalisation was carried out considering as 100% the Th-S fluorescence of the bacterial cells expressing Aβ42 in the absence of drug, and 0% the Th-S fluorescence of the bacterial cells non-expressing Aβ42 (in absence of the protein production inductor, IPTG). […]

[4] = calibration substance; cited from earlier work
[5] = test system: Human hepatic stellate cells (HSCs); assay: in vitro; assay type: cell-based; details: 0.1 µM, 24 h
Protocol: Human hepatic stellate cells (HSCs, Sciencell) were grown in the Stellate Cell Medium (Sciencell) supplemented with 2% Foetal Bovine Serum (Sciencell), 1% Stellate Cell Growth Supplement (Sciencell) and 1% penicillin/streptomycin solution (Sciencell). The cells were cultured in the incubator at 37 °C and 5% CO2. To start the experiment, the cells were seeded at a density of 5 × 10^3 cells/well in 96-well plates and incubated (37 °C, 5% CO2) for 24 h. After incubation, medium was removed from the wells and the cells were exposed to 100 µl of the compound over a range of concentrations (from 0.1 to 10 µM) or 100 µl of culture medium alone (blank control). The cells were then further incubated for 24 h. After this time, the medium was removed, the cells were washed with PBS and 50 µl of MTT solution (0.75 mg/ml) was added to each well. The plates were incubated in the dark at 37 °C for another two hours. The MTT solution was then removed from the wells and 100 µl of DMSO was added. The plates were incubated at room temperature for 10 min and then 5 µl of Sorensen Buffer was added to each well. The plates were swayed and the absorbance at 570 nm was measured with a microplate reader (Synergy H1, BioTek, Winooski, VT, USA). The cell viability was expressed as a percentage of the control values (blank control)[40]^,[46]^,[47].

[6] = test system: SH-SY5Y cells; assay: Neuroprotection against rotenone/oligomycin A, co-incubation, MTT test; assay type: cell-based, human; details: Rotenone/Oligomycin A 30/10 µM
[7] = test system: SH-SY5Y cells; assay: Neuroprotection against H2O2-induced oxidative stress, MTT test; assay type: cell-based, human; details: H2O2 100 µM
[8] = test system: SH-SY5Y cells; assay: Neuroprotection against rotenone/oligomycin A, pre-incubation, MTT test; assay type: cell-based, human; details: Rotenone/Oligomycin A 30/10 µM, compound 0.001 µM
[9] = biological target: T4, hyaluronidase (Bos taurus, UniProt Q2YDK3); assay: Hyaluronidase inhibition test (turbidimetric); assay type: biochemical
T4 sequence (Q2YDK3 36-553): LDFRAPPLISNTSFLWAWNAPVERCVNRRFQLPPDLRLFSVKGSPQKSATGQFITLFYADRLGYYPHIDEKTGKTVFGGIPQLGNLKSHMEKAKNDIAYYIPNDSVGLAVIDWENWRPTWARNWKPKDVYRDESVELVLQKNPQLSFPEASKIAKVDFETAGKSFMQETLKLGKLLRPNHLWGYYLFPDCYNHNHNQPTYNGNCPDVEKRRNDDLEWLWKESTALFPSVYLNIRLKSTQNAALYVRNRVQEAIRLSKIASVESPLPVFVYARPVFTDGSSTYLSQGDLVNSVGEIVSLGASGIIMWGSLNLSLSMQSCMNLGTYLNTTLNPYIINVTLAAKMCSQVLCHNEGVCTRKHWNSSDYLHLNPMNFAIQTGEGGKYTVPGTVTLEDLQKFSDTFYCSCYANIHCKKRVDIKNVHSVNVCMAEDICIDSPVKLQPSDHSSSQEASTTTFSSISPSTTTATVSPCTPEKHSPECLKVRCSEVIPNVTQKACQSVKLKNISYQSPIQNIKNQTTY
Protocol: Hyaluronidase inhibition was established by turbidimetry according to USP XXII-NF XVII[43], which was further adapted to use in 96-well plates by Piwowarski et al.[44] and the principle of this assay is based on the following reaction: hyaluronic acid→hyaluronidase depolymerization products+[…]
The ability to inhibit hyaluronidase was assessed using a turbidimetric method based on spectrophotometric measurement of turbidity resulting from the formation of hyaluronan-bovine albumin complexes in an acidic environment. The analysis was performed against a positive control. Briefly, 20 µl of the tested compound in monosodium phosphate buffer (pH 7.0) was added to 40 µl of hyaluronidase solution (22.55 U/ml, Sigma Aldrich) in the same buffer. The mixture was incubated for 10 min in the dark at 37 °C. Next, 40 µl of hyaluronic acid solution (0.03%, Sigma Aldrich) in monosodium phosphate buffer (pH 5.35) was added to all wells and the mixture was further kept in the dark at 37 °C for 45 min. Finally, 300 µl of bovine serum albumin solution (0.1%, Serva) in sodium acetate buffer (pH 3.75) was added to the mixture, and the 96-well plate was incubated at room temperature for next 10 min. Changes in turbidity at 600 nm were measured by a microplate reader (BioTek, Winooski, VT, USA). Heparin (WZF, Polfa) was used as a positive control. […]

T1 sequence (P81908 whole entry): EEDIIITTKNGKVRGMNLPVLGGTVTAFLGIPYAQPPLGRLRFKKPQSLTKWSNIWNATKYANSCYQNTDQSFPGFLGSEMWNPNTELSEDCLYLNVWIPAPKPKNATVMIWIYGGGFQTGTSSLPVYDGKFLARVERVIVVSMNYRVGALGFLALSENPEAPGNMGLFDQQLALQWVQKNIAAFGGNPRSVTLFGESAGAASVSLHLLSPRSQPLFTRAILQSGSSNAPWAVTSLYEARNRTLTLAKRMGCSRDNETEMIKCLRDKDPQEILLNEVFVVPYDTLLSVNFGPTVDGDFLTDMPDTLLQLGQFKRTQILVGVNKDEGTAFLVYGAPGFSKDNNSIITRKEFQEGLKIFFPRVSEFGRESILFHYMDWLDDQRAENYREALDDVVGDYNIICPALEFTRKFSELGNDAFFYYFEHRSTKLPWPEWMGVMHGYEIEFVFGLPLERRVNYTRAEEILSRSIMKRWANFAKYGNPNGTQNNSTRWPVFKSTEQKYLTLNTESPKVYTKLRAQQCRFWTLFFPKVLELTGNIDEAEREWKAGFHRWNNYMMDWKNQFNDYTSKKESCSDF
T2 sequence (O42275 24-633): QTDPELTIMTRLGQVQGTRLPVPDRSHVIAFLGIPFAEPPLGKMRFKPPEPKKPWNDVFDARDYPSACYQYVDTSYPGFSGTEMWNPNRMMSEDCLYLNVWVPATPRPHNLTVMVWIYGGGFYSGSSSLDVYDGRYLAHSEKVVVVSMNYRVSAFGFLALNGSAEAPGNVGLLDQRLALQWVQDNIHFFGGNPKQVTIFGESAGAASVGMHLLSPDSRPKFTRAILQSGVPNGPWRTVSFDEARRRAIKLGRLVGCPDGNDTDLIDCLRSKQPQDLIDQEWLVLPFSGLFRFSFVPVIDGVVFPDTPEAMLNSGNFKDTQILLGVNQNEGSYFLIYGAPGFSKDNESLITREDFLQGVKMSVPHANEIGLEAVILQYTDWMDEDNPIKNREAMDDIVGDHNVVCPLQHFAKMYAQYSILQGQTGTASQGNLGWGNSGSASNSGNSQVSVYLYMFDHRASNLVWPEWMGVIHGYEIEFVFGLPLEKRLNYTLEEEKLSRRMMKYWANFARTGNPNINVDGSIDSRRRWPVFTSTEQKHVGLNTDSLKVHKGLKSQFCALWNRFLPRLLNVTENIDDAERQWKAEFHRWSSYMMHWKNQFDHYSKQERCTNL
T3 sequence (P05067 672-713): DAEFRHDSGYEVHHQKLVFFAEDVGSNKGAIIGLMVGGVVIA

For `O=C(NCCNc1c2c(nc3ccccc13)CCC2)c1cc(Cl)cc(Cl)c1` [Compound 3a], the “Selectivity for BuChE” value [1] was 6.88, the IC50 [1] was 0.225 ± 0.021 µM and the “Selectivity for AChE” value [2] was 0.15. It also gave an IC50 [2] of 1.54 ± 0.121 µM.
In the case of `O=C(NCCCNc1c2c(nc3ccccc13)CCC2)c1cc(Cl)cc(Cl)c1` [Compound 3b], the IC50 [1] is reported as 0.889 ± 0.027 µM, the “Selectivity for AChE” value [2] is reported as 0.56 and the IC50 [2] is reported as 1.18 ± 0.134 µM.
In the case of `O=C(NCCCCNc1c2c(nc3ccccc13)CCC2)c1cc(Cl)cc(Cl)c1` [Compound 3c], the “Selectivity for BuChE” value [1] is reported as 9.18, the IC50 [1] is reported as 0.126 ± 0.007 µM and the “Selectivity for AChE” value [2] is reported as 0.11. For the same compound, the IC50 [2] was 1.16 ± 0.13 µM.
In the case of `O=C(NCCCCCNc1c2c(nc3ccccc13)CCC2)c1cc(Cl)cc(Cl)c1` [Compound 3d], the “Selectivity for BuChE” value [1] is reported as 0.19, the IC50 [1] is reported as 1.12 ± 0.18 µM and the “Selectivity for AChE” value [2] is reported as 5.33. For the same compound, the IC50 [2] was 0.211 ± 0.031 µM.
With `O=C(NCCCCCCCNc1c2c(nc3ccccc13)CCC2)c1cc(Cl)cc(Cl)c1` [Compound 3f] the “Selectivity for BuChE” value [1] was 2.16, the IC50 [1] was 0.117 ± 0.027 µM and the “Selectivity for AChE” value [2] was 0.46. For the same compound, the IC50 [2] was 0.253 ± 0.042 µM.
In the case of `O=C(NCCCCCCCCNc1c2c(nc3ccccc13)CCC2)c1cc(Cl)cc(Cl)c1` [Compound 3g], the “Selectivity for BuChE” value [1] is reported as 4.50, the IC50 [1] is reported as 0.33 ± 0.034 µM and the “Selectivity for AChE” value [2] is reported as 0.22. It also gave an IC50 [2] of 1.48 ± 0.133 µM.
With `O=C(NCCCCCCCCCNc1c2c(nc3ccccc13)CCC2)c1cc(Cl)cc(Cl)c1` [Compound 3h] the “Selectivity for BuChE” value [1] was 1.10, the IC50 [1] was 0.131 ± 0.011 µM and the “Selectivity for AChE” value [2] was 0.91. It also gave an IC50 [2] of 0.145 ± 0.013 µM.
For `O=C(NCCCCCCCCNc1c2c(nc3cc(Cl)ccc13)CCCC2)c1ccc2nc(-c3ccc(Cl)cc3)c3c(c2c1)NCCC3` [DP128, reference compound], the “anti-amyloid (inhibition) capacity for Aβ42” value [3] was 69.2 ± 4.1.
For `CC(CN1c2ccccc2Sc2ccccc21)N(C)C.Cl` (stereo not drawn) [Promethazine HCl], the “Experimental properties pKa” value [4] is given as 9.10[54].
With `Nc1c2c(nc3ccccc13)CCCC2` [Tacrine, 9-amino-1,2,3,4-tetrahydroacridine, reference compound] the “cell viability (hepatotoxicity, MTT)” value [5] was 100.67%.
For `Cc1c(C)c2c(c(C)c1O)CCC(C)(C(=O)O)O2` (stereo not drawn) [Trolox, reference compound], the “% neuroprotection” value ([6]; compound 0.001 µM) was 5.60%, the “% neuroprotection” value ([6]; compound 0.01 µM) was 4.67% and the “% neuroprotection” value ([6]; compound 0.1 µM) was 0.35%. The “% neuroprotection” value ([7]; compound 0.01 µM) was 77.16%, the “% neuroprotection” value ([7]; compound 0.1 µM) was 91.22% and the “% neuroprotection” value ([7]; compound 1 µM) was 96.03%. The “% neuroprotection” value ([7]; compound 10 µM) was 95.05% and the “% neuroprotection” value [8] was 2.15%.
Work on heparin yielded an IC50 [9] of 56.4 ± 0.78 µM.
